Experimental findings from US20250215029A1 (Recludix Pharma, Inc., priority 2022, published 2025) are described below.

Structures are written as SMILES. Where two headings read alike, the source gives them in different places.

Test [1] has as its target T1, Recombinant STAT6 protein (STAT6 (W123-T658)) (Homo sapiens, UniProt P42226).
T1 construct: Recombinant STAT6 protein (STAT6 (W123-T658))
T1 sequence (P42226 123-658): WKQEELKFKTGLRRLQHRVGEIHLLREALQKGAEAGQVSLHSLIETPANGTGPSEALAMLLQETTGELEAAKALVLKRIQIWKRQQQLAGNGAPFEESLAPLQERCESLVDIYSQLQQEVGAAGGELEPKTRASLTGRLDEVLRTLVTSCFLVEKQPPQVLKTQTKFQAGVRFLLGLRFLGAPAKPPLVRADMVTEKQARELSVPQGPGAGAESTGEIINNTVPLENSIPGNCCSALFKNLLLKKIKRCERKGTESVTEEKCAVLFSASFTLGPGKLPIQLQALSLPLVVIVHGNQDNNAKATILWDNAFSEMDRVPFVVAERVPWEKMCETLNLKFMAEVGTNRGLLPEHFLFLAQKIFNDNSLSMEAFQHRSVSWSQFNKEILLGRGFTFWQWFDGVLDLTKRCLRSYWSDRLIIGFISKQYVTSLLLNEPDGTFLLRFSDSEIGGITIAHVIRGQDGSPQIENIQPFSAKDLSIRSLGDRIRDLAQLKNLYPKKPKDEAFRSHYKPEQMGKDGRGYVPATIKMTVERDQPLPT
Briefly: STAT6 Fluorescence Polarization (FP) Assay. The class given is binding. As to conditions: 45-minute incubation. In outline: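 Competitive FP binding: recombinant STAT6 (W123-T658) at 250 nM, labeled phosphotyrosine peptide at 2 nM, compounds at 1% DMSO, 45 min at RT before reading. IC50 values were obtained from nonlinear regression of mP versus log concentration.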

Test [2] has as its target T2, Recombinant STAT3 protein (STAT3 (G127-I722)) (Homo sapiens, UniProt P40763).
T2 construct: Recombinant STAT3 protein (STAT3 (G127-I722))
Briefly: STAT3 Fluorescence Polarization (FP) Assay. In kind it is binding. As to conditions: probe 5-FAM-GpYLPQTV-NH2 2 nM, 45-minute incubation. In outline: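 Read-out is fluorescence polarization (mP) after 45 min at room temperature, with IC50 fitted by nonlinear regression against log compound concentration. Mixture: 25 nM STAT3 (G127-I722), 2 nM 5-FAM-GpYLPQTV-NH2 phosphopeptide, 10 mM HEPES pH 7.4 buffer, 1% DMSO.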
A general note: In fluorescence polarisation assays a small probe gives low polarisation when free and higher when bound to something large.

Setting [3] is: STAT6 250 nM, probe 5-FAM-Ap[…]-NH2 2 nM, read-out: STAT6 (FP assay IC50).
Where [4] appears, read: STAT3 25 nM, read-out: STAT3 (FP assay IC50).
[5] abbreviates: STAT6 250 nM, probe 5-FAM-ApYKPFQDLI-NH2 2 nM, read-out: STAT6 (FP assay IC50).
Setting [6] is: STAT6 (W123-T658) 250 nM, probe 5-FAM-ApYKPFQDLI-NH2 2 nM, read-out: STAT6 (FP assay IC50 class).
The mark [7] stands for this setting: STAT3 (G127-I722) 25 nM, read-out: STAT3 (FP assay IC50 class).
Setting [8] is: STAT6 (W123-T658) 250 nM, probe 5-FAM-Ap[…]-NH2 2 nM, read-out: STAT6 (FP assay IC50 class).

T2 sequence (P40763 127-722): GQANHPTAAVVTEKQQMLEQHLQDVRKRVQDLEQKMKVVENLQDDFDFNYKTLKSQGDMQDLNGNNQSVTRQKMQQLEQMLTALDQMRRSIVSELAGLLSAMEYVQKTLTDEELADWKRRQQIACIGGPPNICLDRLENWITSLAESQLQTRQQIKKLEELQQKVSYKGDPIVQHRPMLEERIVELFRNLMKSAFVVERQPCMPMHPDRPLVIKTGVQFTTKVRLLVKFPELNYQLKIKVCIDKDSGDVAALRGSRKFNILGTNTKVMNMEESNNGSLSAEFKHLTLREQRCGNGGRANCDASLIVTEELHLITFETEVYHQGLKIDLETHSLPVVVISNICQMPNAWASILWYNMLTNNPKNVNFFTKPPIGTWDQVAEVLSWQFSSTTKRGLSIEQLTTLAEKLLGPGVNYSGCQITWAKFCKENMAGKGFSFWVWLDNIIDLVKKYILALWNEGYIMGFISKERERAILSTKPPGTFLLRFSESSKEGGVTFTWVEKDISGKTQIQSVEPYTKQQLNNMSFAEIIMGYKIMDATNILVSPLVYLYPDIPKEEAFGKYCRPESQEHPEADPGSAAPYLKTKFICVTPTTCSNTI

Regarding `N#C[C@@H]1CN(C(=O)[C@@H]2CC[C@@H]3CCCC[C@H](NC(=O)c4cc5cc(C(F)(F)P(=O)(O)O)ccc5s4)C(=O)N32)C[C@H]1c1ccccc1` (single isomer, unassigned) [Compound 22, ((2-(((3S,6S,10aS)-3-((3S,4R or 3R,4S))-3-cyano-4-phenylpyrrolidine-1-carbonyl)-5-oxodecahydropyrrolo [1,2-a]azocin-6-yl)carbamoyl)benzo[b]thiophen-5-yl) difluoromethyl) phosphonic acid], the IC50 in test [1] (setting [3]) is not above 300 nM; in test [2] (setting [4]) it was 1000 to 10000 nM.

As for `N#C[C@@H]1CN(C(=O)[C@@H]2CC[C@@H]3CCCC[C@H](NC(=O)c4ccc5ccc(C(F)(F)P(=O)(O)O)cc5c4)C(=O)N32)C[C@H]1c1cc[nH]c(=O)c1` (single isomer, unassigned) [Compound 79, ((7-(((3S,6S,10aS)-3-((3S,4R or 3R,4S)-3-cyano-4-(2-oxo-1,2-dihydropyridin-4-yl)pyrrolidine-1-carbonyl)-5-oxodecahydropyrrolo [1,2-a]azocin-6-yl)carbamoyl)naphthalen-2-yl)difluoromethyl) phosphonic acid], the IC50 in test [1] (setting [5]) is not above 300 nM; in test [2] (setting [4]), 100 to 1000 nM.

As for `N#C[C@H]1CN(C(=O)[C@@H]2CC[C@@H]3CCCC[C@H](NC(=O)c4ccc5ccc(C(F)(F)P(=O)(O)O)cc5c4)C(=O)N32)C[C@@H]1c1cc[nH]c(=O)c1` (single isomer, unassigned) [Compound 80, ((7-(((3S,6S,10aS)-3-((3R,4S or 3S,4R)-3-cyano-4-(2-oxo-1,2-dihydropyridin-4-yl)pyrrolidine-1-carbonyl)-5-oxodecahydropyrrolo [1,2-a]azocin-6-yl)carbamoyl)naphthalen-2-yl)difluoromethyl) phosphonic acid], the IC50 in test [1] (setting [5]) is not above 300 nM; in test [2] (setting [4]), 100 to 1000 nM.

For the molecule `N#C[C@H]1CN(C(=O)[C@@H]2CC[C@@H]3CCCC[C@H](NC(=O)c4cc5cc(CP(=O)(O)O)ccc5s4)C(=O)N32)C[C@@H]1c1ccccc1` (single isomer, unassigned) [Compound 90, ((2-(((3S,6S,10aS)-3-((3R,4S or 3S,4R)-3-cyano-4-phenylpyrrolidine-1-carbonyl)-5-oxodecahydropyrrolo [1,2-a]azocin-6-yl)carbamoyl)benzo[b]thiophen-5-yl)methyl) phosphonic acid], the IC50 in test [1] (setting [5]) is 300 to 3000 nM; in test [2] (setting [4]), more than 10000 nM.

With `CC1CCC[C@H](NC(=O)c2cc3cc(C(F)(F)P(=O)(O)O)ccc3s2)C(=O)N2[C@@H]1CC[C@H]2C(=O)N1C[C@H](c2cc[nH]c(=O)c2)[C@@H](C#N)C1` (single isomer, unassigned) [Compound 104, ((2-(((3S,6S,10aR)-3-((3R,4S or 3S,4R)-3-cyano-4-(2-oxo-1,2-dihydropyridin-4-yl)pyrrolidine-1-carbonyl)-10-methyl-5-oxodecahydropyrrolo [1,2-a]azocin-6-yl)carbamoyl)benzo[b]thiophen-5-yl)difluoromethyl) phosphonic acid], the results for the half-inhibitory concentration (IC50) in test [1] (setting [5]) and in test [2] (setting [4]) were 300 to 3000 nM and 100 to 1000 nM, respectively.

With `N#C[C@@H]1CN(C(=O)[C@@H]2C[C@@H](O)[C@@H]3CCCCC[C@H](NC(=O)c4ccc5ccc(C(F)(F)P(=O)(O)O)cc5c4)C(=O)N23)C[C@H]1c1cc[nH]c(=O)c1` (single isomer, unassigned) [Compound 106, ((7-(((1R,3S,6S, 11aS)-3-((3S,4R or 3R,4S)-3-cyano-4-(2-oxo-1,2-dihydropyridin-4-yl)pyrrolidine-1-carbonyl)-1-hydroxy-5-oxodecahydro-1H-pyrrolo[1,2-a]azonin-6-yl)carbamoyl)naphthalen-2-yl)difluoromethyl) phosphonic acid], the results for the IC50 in test [1] (setting [3]) and in test [2] (setting [4]) were not above 300 nM and 1000 to 10000 nM, respectively.

As to `N#C[C@@H]1CN(C(=O)[C@@H]2CCC[C@@H]3CCC[C@H](NC(=O)c4cc5cc(C(F)(F)P(=O)(O)O)ccc5s4)C(=O)N32)C[C@H]1c1ccccc1` (single isomer, unassigned) [Compound 107, ((2-(((4S,7S,10aS)-4-((3S,4R or 3R,4S)-3-cyano-4-phenylpyrrolidine-1-carbonyl)-6-oxodecahydropyrido [1,2-a]azepin-7-yl)carbamoyl)benzo[b]thiophen-5-yl)difluoromethyl) phosphonic acid], the IC50 in test [1] (setting [5]) is not above 300 nM; in test [2] (setting [4]) it was 100 to 1000 nM.

In the case of `C[C@@H]1C[C@H]2CC[C@@H](C(=O)N3CC(c4cccnc4)C3)N2C(=O)[C@@H](NC(=O)c2cc3cc(C(F)(F)P(=O)(O)O)ccc3s2)C1` (single isomer, unassigned) [Compound 110, (difluoro(2-(((3S,6S,8R,9aR)-8-methyl-5-oxo-3-(3-(pyridin-3-yl)azetidine-1-carbonyl)octahydro-1H-pyrrolo[1,2-a]azepin-6-yl)carbamoyl)benzo[b]thiophen-5-yl)methyl) phosphonic acid or (difluoro(2-(((3S,6S,8S,9aR)-8-methyl-5-oxo-3-(3-(pyridin-3-yl)azetidine-1-carbonyl)octahydro-1H-pyrrolo[1,2-a]azepin-6-yl)carbamoyl)benzo[b]thiophen-5-yl)methyl) phosphonic acid], the half-inhibitory concentration (IC50) was 3000 to 30000 nM in test [1] (setting [3]) and less than 100 nM in test [2] (setting [4]).

Turning to `CC(C)[C@@H]1CC[C@H](NC(=O)c2cc3cc(C(F)P(=O)(O)O)ccc3s2)C(=O)N2[C@H](CC[C@H]2C(=O)N2C[C@H](c3ccccc3)[C@@H](C#N)C2)C1` (single isomer, unassigned) [Compound 212], the concentration for half-maximal inhibition (IC50) was not above 300 nM in test [1] (setting [6]) and 1000 to 10000 nM in test [2] (setting [7]).

Turning to `N#C[C@@H]1CN(C(=O)[C@@H]2CC[C@@H]3CCCC[C@H](NC(=O)c4cc5cc(C(F)P(=O)(O)O)ccc5s4)C(=O)N32)C[C@H]1c1ccccc1` (single isomer, unassigned) [Compound 224], the results for the IC50 in test [1] (setting [8]) and in test [2] (setting [7]) were not above 300 nM and 1000 to 10000 nM, respectively.

Take `N#C[C@@H]1CN(C(=O)[C@@H]2CC[C@@H]3CCCC[C@H](NC(=O)c4cc5cc(C(F)P(=O)(O)O)ccc5s4)C(=O)N32)C[C@H]1c1ccccc1` (single isomer, unassigned) [Compound 225]: the results for the IC50 in test [1] (setting [6]) and in test [2] (setting [7]) were not above 300 nM and 1000 to 10000 nM, respectively.

`N#C[C@@H]1CN(C(=O)[C@@H]2CC[C@@H]3CCCC[C@H](NC(=O)c4ccc5ccc(C(F)P(=O)(O)O)cc5c4)C(=O)N32)C[C@H]1c1ccccc1` (single isomer, unassigned) [Compound 226]: the IC50 in test [1] (setting [8]) is not above 300 nM; in test [2] (setting [7]), 1000 to 10000 nM.

For the molecule `Cn1ccc([C@@H]2CN(C(=O)[C@@H]3CC[C@@H]4CCCC[C@H](NC(=O)c5cc6cc(C(F)P(=O)(O)O)ccc6s5)C(=O)N43)C[C@H]2C#N)cc1=O` (single isomer, unassigned) [Compound 227], the figures for the IC50 in test [1] (setting [8]) and in test [2] (setting [7]) were 300 to 3000 nM and 100 to 1000 nM, respectively.

For the molecule `Cn1ccc([C@@H]2CN(C(=O)[C@@H]3CC[C@@H]4CCCC[C@H](NC(=O)c5cc6cc(C(F)P(=O)(O)O)ccc6s5)C(=O)N43)C[C@H]2C#N)cc1=O` (single isomer, unassigned) [Compound 228], the IC50 in test [1] (setting [6]) was 300 to 3000 nM; in test [2] (setting [7]), 1000 to 10000 nM.

Consider `N#C[C@@H]1CN(C(=O)[C@@H]2CC[C@@H]3CCC[C@H](NC(=O)c4cc5cc(C(F)P(=O)(O)O)ccc5s4)C(=O)N32)C[C@H]1c1ccccc1` (single isomer, unassigned) [Compound 232], for which the IC50 in test [1] (setting [8]) lay in the range of 300 to 3000 nM; in test [2] (setting [7]), 1000 to 10000 nM.

In the case of `N#C[C@@H]1CN(C(=O)[C@@H]2CC[C@@H]3CCC[C@@H](C4CC4)[C@H](NC(=O)c4cc5cc(C(F)(F)P(=O)(O)O)ccc5s4)C(=O)N32)C[C@H]1c1ccccc1` (single isomer, unassigned) [Compound 234], the IC50 is not above 300 nM in test [1] (setting [8]) and 1000 to 10000 nM in test [2] (setting [7]).

Consider `CC[C@@H]1CC[C@H](NC(=O)c2cc3cc(C(F)P(=O)(O)O)ccc3s2)C(=O)N2[C@H](CC[C@H]2C(=O)N2C[C@@H](C#N)[C@H](c3ccccc3)C2)C1` (single isomer, unassigned) [Compound 235], for which the values for the IC50 in test [1] (setting [8]) and in test [2] (setting [7]) were not above 300 nM and 1000 to 10000 nM, respectively.

In the case of `CC[C@H]1CC[C@H](NC(=O)c2cc3cc(C(F)P(=O)(O)O)ccc3s2)C(=O)N2[C@H](CC[C@H]2C(=O)N2C[C@@H](C#N)[C@H](c3ccccc3)C2)C1` (single isomer, unassigned) [Compound 237], the results for the IC50 in test [1] (setting [8]) and in test [2] (setting [7]) were not above 300 nM and 1000 to 10000 nM, respectively.

For orientation: IC50 means the point on the concentration scale where inhibition reaches its midpoint.
